{"source": "patent US20260271924A1", "about": "“COMPOSITIONS FOR MODULATING PLANT GROWTH AND STRESS TOLERANCE, AND METHODS OF USE THEREOF” (The Regents of the University of California, priority 2023, published 2026)", "key": {"Arabidopsis [1]": {"tested_on": "Arabidopsis", "assay": "Arabidopsis seedling growth / primary root length on treated ½× MS media", "format": "in vivo, Arabidopsis thaliana", "description": "(§1) Plant Growth. For the Arabidopsis treatments, compounds were added to sterile ½× Murashige and Skoog (MS) plant growth media, and the pH was adjusted to 5.7 using potassium hydroxide. Seeds were sterilized using 20% bleach and sowed on the treated plant growth media. Plants were incubated in a 16 h/8 h day/night cycle growth chamber at 22° C. for 7-14 days prior to phenotyping. For the maize treatments, compounds were added to water, and the pH was adjusted to 5.7 using potassium hydroxide. Maize seeds were sterilized using 20% bleach and grown in large size seed germination pouches (see, e.g., mega-international.com) with the treatment. Plants were incubated in a 16 h/8 h day/night cycle growth chamber at 28° C. night/21° C. day for 5 days prior to phenotyping.\nStock Solutions. 100 mM stock solutions of the various metabolites and itaconate were produced. Metabolites were dissolved using Milli-Q (MQ) water and the pH was adjusted to 5.7-5.8 using 1M KOH. The Ocyl-itaconate stock solution was dissolved in dimethyl sulfoxide (DMSO). Arabidopsis seeds were sterilized using 20% bleach and allowed to mix for 7 minutes. After mixing, seeds were rinsed with sterilized water 6 times. Sterilized seedlings were then placed on media filled square plates. Micropore tape was used to wrap the plates and aluminum foil was used to cover plates, before stratifying for 2 days in a 4° C. chamber. After stratification, seedlings were placed in 22° C. light chamber at intensity 625 lux for 7 days before scanning. All quantifications of the seedlings were performed on FIJI Image J. Seedlings with interesting phenotypes were then transferred to soil in 22° C. conditions with light intensity 625 lux."}, "pPIN1-PIN1-GFP": {"tested_on": "pPIN1-PIN1-GFP", "assay": "Auxin transport reporter line imaging", "format": "in vivo, Arabidopsis thaliana", "conditions": "4-OI treatment", "from_the_text": "(§2) Confocal Images. For Arabidopsis, most of the roots were stained by PI (Propidium iodide). Hormone reporter lines (GFP, 488 nm), hydrogen peroxide sensor lines (GFP, 488 nm; CFP, 408 nm) (see, Shi et al., Nat. Commun. 13:5040, 2022), ATP sensor lines (DeCol et al., eLife, 6:e26770, 2017) were observed under a Leica SP8 confocal microscope (CFP, 439 nm; VENUS, 516 nm)."}, "pCYCB1; 1-CYCB1; 1-GFP": {"tested_on": "pCYCB1; 1-CYCB1; 1-GFP", "assay": "Cell cycle reporter line imaging", "format": "in vivo, Arabidopsis thaliana", "conditions": "50 μM 4-OI; compared to the control", "from_the_text": "as §2"}, "maize": {"tested_on": "maize", "assay": "Maize seedling growth under treatment in seed germination pouches", "format": "in vivo", "description": "as §1"}, "ATP levels": {"tested_on": "ATP levels", "assay": "Fluorescent ATP reporter line imaging", "format": "in vivo, Arabidopsis thaliana", "conditions": "4-OI; meristem zone", "from_the_text": "as §2"}, "DR5-GFP": {"tested_on": "DR5-GFP", "assay": "Auxin reporter line imaging", "format": "in vivo, Arabidopsis thaliana", "conditions": "4-OI treatment; compared to the control", "from_the_text": "as §2"}, "6×ABRE-R:erGFP": {"tested_on": "6×ABRE-R:erGFP", "assay": "ABA signaling reporter line imaging", "format": "in vivo, Arabidopsis thaliana", "conditions": "4-OI treatment", "from_the_text": "as §2"}, "superoxide": {"tested_on": "superoxide", "assay": "NBT staining of Arabidopsis roots (ROS)", "format": "in vivo, Arabidopsis thaliana", "conditions": "NBT and H2DCFDA staining; 1 mM itaconate, 50 μM 4-OI", "description": "ROS staining. For ROS staining, superoxides were detected using NBT; and hydrogen peroxide was detected using 2′,7′-dichlorodihydrofluorescein diacetate (H2DCFDA).\nNBT staining procedures were carried out as described in Kumar et al., Bio-protcol, 4:e1108, 2014. Briefly, a 0.2% solution of NBT was made in a 50 mM sodium phosphate buffer. This solution was used to soak seedlings for 2 minutes in the dark and was then rinsed using deionized (DI) water. Images were taken on a with a 1× objective with a Nikon SMZ1270 Stereo microscope."}, "TCSn-GFP": {"tested_on": "TCSn-GFP", "assay": "Cytokinin signaling reporter line imaging", "format": "in vivo, Arabidopsis thaliana", "from_the_text": "as §2"}, "Arabidopsis [2]": {"tested_on": "Arabidopsis", "assay": "Arabidopsis root growth under itaconate combined with stress agents or sucrose", "format": "in vivo, Arabidopsis thaliana", "conditions": "50 mM NaCl; 100 mM Mannitol", "description": "as §1"}, "[3]": {"tested_on": "root meristem and mature cells", "assay": "Aconitate treatment of roots", "format": "in vivo", "conditions": "treatment with aconitate"}}, "note": "Entries after “also recorded” stand apart in the source; their conditions may differ."}
{"smiles": "CC(CC(=O)O)C(=O)O", "note": "(stereo not shown) [2-methyl succinate, reference compound]", "values": [{"measurement": "impact on Arabidopsis (primary root length)", "setting": "Arabidopsis [1]; 0.5 mM 2-methyl succinate", "result": "does not impact Arabidopsis"}, {"measurement": "impact on Arabidopsis (primary root length)", "setting": "Arabidopsis [1]; 2 mM 2-methyl succinate", "result": "does not impact Arabidopsis"}]}
{"smiles": "C=C(CC(=O)OCCCCCCCC)C(=O)O", "note": "[4-OI, 4-octyl itaconate]", "values": [{"measurement": "pPIN1-PIN1-GFP fluorescent intensity and area", "setting": "pPIN1-PIN1-GFP", "result": "reduces both the pPIN1-PIN1-GFP fluorescent intensity and area"}, {"measurement": "number of actively dividing cells", "setting": "pCYCB1; 1-CYCB1; 1-GFP", "result": "significant reduction"}, {"measurement": "maize root growth", "setting": "maize; 50 μM 4-OI for 5 days", "result": "enhanced maize root growth"}, {"measurement": "maize shoot growth", "setting": "maize; 50 μM 4-OI for 5 days", "result": "without affecting shoot growth"}, {"measurement": "ATP levels", "setting": "ATP levels", "result": "increased ATP levels"}, {"measurement": "DR5-GFP fluorescent intensity", "setting": "DR5-GFP", "result": "significantly induced; also recorded: is increased"}, {"measurement": "6×ABARE-R:erGFP intensity in the roots", "setting": "6×ABRE-R:erGFP", "result": "induces"}, {"measurement": "Arabidopsis growth", "setting": "Arabidopsis [1]; 4-OI, 4 day old seedlings treated for 3 days", "result": "inhibits Arabidopsis growth in a dose-dependent manner"}, {"measurement": "plant growth", "setting": "Arabidopsis [1]; Arabidopsis, 50 μM 4-OI", "result": "nearly arrested plant growth"}, {"measurement": "root gravitropic orientation", "setting": "Arabidopsis [1]; Arabidopsis, 4-OI (50 μM)", "result": "roots lose their gravitropic orientation; also recorded: defective gravitropic phenotype"}, {"measurement": "ROS levels in Arabidopsis roots", "setting": "superoxide", "result": "decrease in ROS levels; also recorded: repress"}, {"measurement": "TCSn-GFP signal in the QC", "setting": "TCSn-GFP; 4-OI treatment", "result": "increases the signal in the QC"}, {"measurement": "TCSn-GFP intensity in the columella", "setting": "TCSn-GFP; itaconate or 4-OI treatment", "result": "decrease; also recorded: reduces"}]}
{"smiles": "C#CCCCCCCOC(=O)CC(=C)C(=O)O", "note": "[ITalk, itaconate-alkyne, reference compound]", "values": [{"measurement": "phenotype induced by ITalk treatment", "setting": "Arabidopsis [1]; Arabidopsis, 1 μM and 10 μM iTalk", "result": "closely resembles that of 4-OI"}]}
{"smiles": "[Cl-].[Na+]", "note": "[NaCl, sodium chloride]", "values": [{"measurement": "root growth under stress agent alone", "setting": "Arabidopsis [2]", "result": "decrease root growth"}]}
{"smiles": "O=C(O)/C=C(/CC(=O)O)C(=O)O", "note": "[aconitate]", "values": [{"measurement": "length of mature cells", "setting": "[3]", "result": "increased the length of mature cells"}, {"measurement": "meristem cell number", "setting": "[3]", "result": "inhibited meristem cell number"}]}
{"smiles": "C=C(CC(=O)O)C(=O)O", "note": "[itaconate]", "values": [{"measurement": "increased growth", "setting": "maize; maize treated with itaconate, p=0.01", "result": 30, "unit": "%"}, {"measurement": "decreased growth", "setting": "Arabidopsis [1]; Arabidopsis, same concentration of itaconate as maize, p<0.0001", "result": 25, "unit": "%"}]}
{"smiles": "OC[C@@H](O)[C@@H](O)[C@H](O)[C@H](O)CO", "note": "[mannitol]", "values": [{"measurement": "root growth under stress agent alone", "setting": "Arabidopsis [2]", "result": "decrease root growth"}]}
